Patent US9522194B2, “Methods of using monomethylvaline compositions having phenylalanine carboxy modifications at the C-terminus” (priority 2005, dated 2016)
Non-standard residues stand in square brackets, D forms with d. Residues, ends and D or L forms follow the SMILES beside them. ξ: configuration not given here. *: point of attachment. Dolaproine = CO[C@@H]([C@@H]1CCCN1)[C@@H](C)C(=O)O; Dil = CC[C@H](C)[C@H](NC)[C@@H](CC(=O)O)OC; X1 = c1ccc(C[C@H](N*)c2nn[nH]n2)cc1; X2 = C[C@@H](N*)[C@@H](O)c1ccccc1; NMeV = CN[C@H](C(=O)O)C(C)C; ξNMeV = CNC(C(=O)O)C(C)C

Legend:
[1] = system: breast carcinoma cell line H3396; assay: In vitro activity of free drugs; type: cell-based; conditions: free drug
Description: The cytotoxic activity of MMAZ and other compounds is evaluated on the Lewis Y positive cell lines OVCAR-3, H3396 breast carcinoma, L2987 lung carcinoma and LS174t colon carcinoma Lewis Y positive cell lines can be assayed for cytotoxicity. To evaluate the cytotoxicity of compounds, cells can be seeded at approximately 5-10,000 per well in 150 μl of culture medium then treated with graded doses of compounds in quadruplicates at the initiation of assay. Cytotoxicity assays are usually carried out for 96 hours after addition of test compounds. Fifty μl of resazurin dye may be added to each well during the last 4 to 6 hours of the incubation to assess viable cells at the end of culture. Dye reduction can be determined by fluorescence spectrometry using the excitation and emission wavelengths of 535 nm and 590 nm, respectively. For analysis, the extent of resazurin reduction by the treated cells can be compared to that of the untreated control cells.

[2] = system: CD30+ Karpas 299 cell line; assay: In vitro efficacy of antibody drug conjugates, 96 hours incubation; type: cell-based, human; conditions: cAC10 (chimeric anti-CD30) conjugate of the named linker-drug, 4 drugs per antibody
Description: (§1) To evaluate the cytotoxicity of Exemplary Conjugates, cells are seeded at approximately 5-10,000 per well in 150 μl of culture medium then treated with graded doses of Exemplary Conjugates in quadruplicates at the initiation of assay. Cytotoxicity assays are carried out for 96 hours after addition of test compounds. Fifty μl of the resazurin dye is added to each well during the last 4 to 6 hours of the incubation to assess viable cells at the end of culture. Dye reduction is determined by fluorescence spectrometry using the excitation and emission wavelengths of 535 nm and 590 nm, respectively. For analysis, the extent of resazurin reduction by the treated cells is compared to that of the untreated control cells.
(§2) IC50 values are defined as the concentration where growth is reduced 50% compared with untreated control cultures. Each concentration is tested in quadruplicate. The conjugates contain 4 drugs per antibody.

CD30+ L540cy cell line = assay: as above; type: cell-based; conditions: cAC10 (chimeric anti-CD30) conjugate of the named linker-drug, 4 drugs per antibody
Description: as §1, §2

[3] = system: CD70+ Caki-1 renal cell carcinoma cell line; assay: as above; type: cell-based
[4] = system: CD70+ 786-O renal cell carcinoma cell line; assay: as above; type: cell-based
[5] = system: L428 cell line (CD70+, CD30+); assay: as above; type: cell-based
[6] = system: colon carcinoma cell line HCT-116; assay: In vitro cytotoxicity of free drugs (resazurin, 96 h); type: cell-based; conditions: free drug, read-out: IC50s (nM) HCT-116
[7] = system: anaplastic large cell lymphoma cell line Karpas 299; assay: as above; type: cell-based, human; conditions: free drug, read-out: IC50s (nM) Karpas 299
[8] = system: Hodgkin's disease cell line L428; assay: as above; type: cell-based; conditions: free drug, read-out: IC50s (nM) L428
[9] = system: renal cell carcinoma cell line Caki-1; assay: as above; type: cell-based; conditions: free drug, read-out: IC50s (nM) Caki-1
[10] = system: renal cell carcinoma cell line 786-O; assay: as above; type: cell-based; conditions: free drug, read-out: IC50s (nM) 786-O
[11] = system: Hodgkin's disease cell line L540cy; assay: as above; type: cell-based; conditions: free drug, read-out: IC50s (nM) L540cy

| Compound | IC50 of cAC10 ADCs (ng/mL) Karpas 299 [2] [ng/mL] | IC50 of cAC10 ADCs (ng/mL) L540cy (CD30+ L540cy cell line) [ng/mL] | IC50 of c1F6 ADCs (ng/mL) Caki-1 [3] [ng/mL] | IC50 of c1F6 ADCs (ng/mL) 786-O [4] [ng/mL] | IC50 of cAC10 ADCs (ng/mL) L428 [5] [ng/mL] | further results |
| --- | --- | --- | --- | --- | --- | --- |
| CC[C@H](C)[C@@H]([C@@H](CC(=O)N1CCC[C@H]1[C@H](OC)[C@@H](C)C(=O)N[C@@H](Cc1ccccc1)c1nn[nH]n1)OC)N(C)C(=O)[C@@H](NC(=O)C(NC)C(C)C)C(C)C (some centres unmarked) [Drug 1003] (H-[ξNMeV]V[Dil][Dolaproine]-X1) |  |  |  |  |  | IC50 ([1]; Homo sapiens): 6 nM |
| MaleimidocaproylNMeValValDilDapphosphonoPhe [mc-MMApF-A] | 10.9 | 2.7 | 8.9 | 3.5 | 0.423 |  |
| MaleimidocaproylNMeValValDilDapphosphonoPhe [mc-MMApF-B] | >5000 | >5000 | >1000 | >1000 | >5000 |  |
| CO[C@@]12[C@H](COC(N)=O)C3=C(C(=O)C(C)=C(N)C3=O)N1C[C@@H]1N[C@@H]12 [Mitomycin C] |  |  |  |  |  | IC50 [6]: 166 nM; IC50 [7]: 105 nM; IC50 [8]: 187 nM; IC50 [9]: 14.5 nM; IC50 [10]: 32.3 nM; IC50 [11]: 134 nM |
| CC[C@H](C)[C@@H]([C@@H](CC(=O)N1CCC[C@H]1[C@H](OC)[C@@H](C)C(=O)N[C@@H](Cc1ccccc1)C(=O)O)OC)N(C)C(=O)[C@@H](NC(=O)[C@@H](NC)C(C)C)C(C)C [MMAF, N-methylvaline-valine-dolaisoleuine-dolaproine-phenylalanine] (H-[NMeV]V[Dil][Dolaproine]F-OH) |  |  |  |  |  | IC50 [6]: 310 nM; IC50 [7]: 240 nM; IC50 [8]: 58 nM; IC50 [9]: 234 nM; IC50 [10]: 380 nM; IC50 [1]: 15 nM; IC50 [11]: 130 nM |
| CC[C@H](C)[C@@H]([C@@H](CC(=O)N1CCC[C@H]1[C@H](OC)[C@@H](C)C(=O)N[C@H](C)[C@@H](O)c1ccccc1)OC)N(C)C(=O)[C@@H](NC(=O)[C@@H](NC)C(C)C)C(C)C [MMAE] (H-[NMeV]V[Dil][Dolaproine]-X2) |  |  |  |  |  | IC50 [1]: 0.7 nM |
| mc-MMAF | 7.6 | 3.4 | 47.3 | 135 | 1.3 |  |
| MaleimidocaproylValCitp-aminobenzoyl-NMeValValDil-DapphosphonoPhe [mc-vc-PAB-MMApF] |  |  | 29.5 | >1000 |  |  |
